From patent publication US11964973B2 (priority 2019, dated 2024)
Where two headings read alike, the source gives them in different places.

How the values were obtained:
human DGKζ = human DGKζ (Homo sapiens (Human), UniProt Q13574); test: biochemical; format: biochemical; conditions: liposome (LIPGLO) assay
Human DGKα(9-727) = Human DGKα(9-727) (Homo sapiens (Human), UniProt P23743); test: biochemical; conditions: read-out: DGKα
[1] = tested on: Human venous whole blood (IFN-γ); test: Human whole blood IFN-γ assay; format: cell-based
Experimental: Assay 10: Human Whole Blood IFN-γ Assay
Human venous whole blood (22.5 μL per well), obtained from healthy donors, was pre-treated with compounds for one hour at 37° C. in a humidified 95% air/5% CO2 incubator. The blood was stimulated with 2.5 μL anti-human CD3 and anti-CD28 mAb at a final concentration of 1 μg/mL each for 24 hours at 37° C. IFN-γ in the supernatants was measured using AlphLISA kit (Cat #AL217).

DGKα = DGKα (Homo sapiens (Human), UniProt P23743); test: biochemical; format: biochemical; conditions: liposome (LIPGLO) assay; read-out: DGKα LIPGLO IC50
Chain of DGKα (P23743 whole entry, looked up): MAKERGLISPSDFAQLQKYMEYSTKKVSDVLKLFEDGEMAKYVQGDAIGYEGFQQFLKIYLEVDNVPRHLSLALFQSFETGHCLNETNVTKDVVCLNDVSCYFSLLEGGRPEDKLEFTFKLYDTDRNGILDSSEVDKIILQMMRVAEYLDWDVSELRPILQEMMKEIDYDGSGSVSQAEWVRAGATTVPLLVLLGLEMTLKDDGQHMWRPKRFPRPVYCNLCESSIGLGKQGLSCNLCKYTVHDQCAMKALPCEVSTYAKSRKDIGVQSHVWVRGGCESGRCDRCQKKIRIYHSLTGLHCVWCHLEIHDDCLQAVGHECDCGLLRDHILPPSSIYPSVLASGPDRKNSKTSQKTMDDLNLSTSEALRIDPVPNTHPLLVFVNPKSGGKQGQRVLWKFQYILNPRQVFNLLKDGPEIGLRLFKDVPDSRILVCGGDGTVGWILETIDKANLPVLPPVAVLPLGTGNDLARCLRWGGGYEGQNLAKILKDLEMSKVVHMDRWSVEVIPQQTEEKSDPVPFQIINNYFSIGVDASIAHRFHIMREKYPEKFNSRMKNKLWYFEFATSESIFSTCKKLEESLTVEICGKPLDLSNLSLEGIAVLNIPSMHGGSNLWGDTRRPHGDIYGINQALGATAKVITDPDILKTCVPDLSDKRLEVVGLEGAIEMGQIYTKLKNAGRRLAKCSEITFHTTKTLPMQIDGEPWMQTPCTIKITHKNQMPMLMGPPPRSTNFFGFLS

[2] = tested on: human venous whole blood, CD8 positive population (pERK); test: DGK human whole blood pERK assay; format: cell-based; conditions: read-out: DGK HWB pERK IC50
How it was run: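 Read-out is the pERK-positive fraction of CD8+ cells measured by flow cytometry. Donor venous blood (heparin) saw compound for one hour at 37° C before a 15-minute anti-CD3 challenge (1 μg/mL final) with cross-linking anti-mouse IgG.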

[3] = Table A, liposome (LIPGLO) assay
[4] = Homo sapiens, human whole blood IFN-γ, read-out: INFg Whole Blood
[5] = human whole blood, CD8 positive population
[6] = Homo sapiens, 24 h, human whole blood, anti-CD3 plus anti-CD28, 24 hours, read-out: INFg Whole Blood Normalized Agonist EC50
[7] = human whole blood, anti-CD3 plus anti-CD28, 24 hours, read-out: INFg Whole Blood Normalized Agonist EC50
[8] = human whole blood IFN-γ, read-out: INFg Whole Blood
[9] = read-out: INFg Whole Blood Normalized Agonist EC50, human whole blood, anti-CD3 plus anti-CD28, 24 hours

Chain of Human DGKα(9-727) (P23743 whole entry, looked up): as above
Chain of human DGKζ (Q13574 whole entry, looked up): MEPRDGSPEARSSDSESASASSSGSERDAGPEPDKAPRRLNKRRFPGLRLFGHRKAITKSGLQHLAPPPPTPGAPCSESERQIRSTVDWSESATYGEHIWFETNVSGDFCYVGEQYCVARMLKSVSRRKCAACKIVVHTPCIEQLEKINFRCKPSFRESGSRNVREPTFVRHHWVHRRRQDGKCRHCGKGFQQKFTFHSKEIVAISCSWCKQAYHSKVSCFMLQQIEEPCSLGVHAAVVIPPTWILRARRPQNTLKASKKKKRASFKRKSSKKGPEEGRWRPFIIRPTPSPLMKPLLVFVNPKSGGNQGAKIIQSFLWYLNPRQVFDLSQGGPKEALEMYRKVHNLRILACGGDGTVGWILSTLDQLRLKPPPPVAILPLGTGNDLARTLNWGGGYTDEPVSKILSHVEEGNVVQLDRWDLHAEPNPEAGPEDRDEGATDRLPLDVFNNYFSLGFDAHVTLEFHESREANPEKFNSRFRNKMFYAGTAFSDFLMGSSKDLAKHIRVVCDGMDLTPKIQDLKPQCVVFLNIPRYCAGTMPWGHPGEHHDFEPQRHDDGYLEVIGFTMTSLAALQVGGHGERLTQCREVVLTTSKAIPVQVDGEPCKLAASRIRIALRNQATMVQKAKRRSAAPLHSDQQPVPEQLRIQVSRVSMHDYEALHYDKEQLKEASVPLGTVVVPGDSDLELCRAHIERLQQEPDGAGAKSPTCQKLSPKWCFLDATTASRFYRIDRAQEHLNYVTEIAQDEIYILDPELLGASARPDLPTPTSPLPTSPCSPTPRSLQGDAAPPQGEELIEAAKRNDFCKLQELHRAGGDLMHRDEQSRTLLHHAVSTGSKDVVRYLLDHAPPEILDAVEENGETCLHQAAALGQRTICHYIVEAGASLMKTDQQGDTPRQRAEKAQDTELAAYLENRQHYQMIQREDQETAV

In the case of `CO[C@@H]1CN(c2cc(=O)n(C)c3ccc(C#N)nc23)CC[C@H]1Oc1cccc(C(F)(F)F)c1` (single isomer, unassigned) [Example 262, (±)-trans-8-(3-methoxy-4-(3-(trifluoromethyl)phenoxy)piperidin-1-yl)-5-methyl-6-oxo-5,6-dihydro-1,5-naphthyridine-2-carbonitrile], the IC50 (human DGKζ; Table A, read-out: DGKζ) is reported as 15 µM and the IC50 (Human DGKα(9-727); [3]) is reported as 3.7 µM.
Work on `CO[C@H]1CN(c2cc(=O)n(C)c3ccc(C#N)nc23)CC[C@@H]1Oc1ccc(OC(C)C)cn1` (single isomer, unassigned) [Example 270, (±)-trans-8-(4-((5-isopropoxypyridin-2-yl)oxy)-3-methoxypiperidin-1-yl)-5-methyl-6-oxo-5,6-dihydro-1,5-naphthyridine-2-carbonitrile] yielded an IC50 (human DGKζ; Table A, read-out: DGKζ) of 12 µM and an IC50 (Human DGKα(9-727); [3]) of 2.4 µM.
`CC(C)Oc1ccc(O[C@H]2CCN(c3cc(=O)n(C)c4ccc(C#N)nc34)C[C@@H]2O)nc1` (single isomer, unassigned) [Example 267, (±)-trans-8-(3-hydroxy-4-((5-isopropoxypyridin-2-yl)oxy)piperidin-1-yl)-5-methyl-6-oxo-5,6-dihydro-1,5-naphthyridine-2-carbonitrile] showed an EC50 [1, 4] of 17 µM, an IC50 (human DGKζ; Table A, read-out: DGKζ) of 10 µM and an IC50 (Human DGKα(9-727); [3]) of 0.26 µM.
Work on `CC(C)Oc1ccc(O[C@H]2CCN(c3cc(=O)n(C)c4ccc(C#N)nc34)C[C@@H]2O)nc1` (single isomer, unassigned) [Example 268, (±)-trans-8-(3-hydroxy-4-((5-isopropoxypyridin-2-yl)oxy)piperidin-1-yl)-5-methyl-6-oxo-5,6-dihydro-1,5-naphthyridine-2-carbonitrile] yielded an IC50 (human DGKζ; Table A, read-out: DGKζ) of 17 µM and an IC50 (Human DGKα(9-727); [3]) of 1.3 µM.
Work on `Cn1c(=O)cc(N2CCC(Oc3ccnc(C(F)(F)F)n3)CC2)c2nc(C#N)ccc21` [Example 76, 5-methyl-6-oxo-8-(4-((2-(trifluoromethyl)pyrimidin-4-yl)oxy)piperidin-1-yl)-5,6-dihydro-1,5-naphthyridine-2-carbonitrile] yielded an IC50 (DGKα) of 11 µM, an IC50 [2, 5] of 20 µM and an EC50 [1, 6] of 20 µM. It also gave an IC50 (human DGKζ; read-out: DGKζ LIPGLO IC50) of 34 µM.
With `CC[C@@H]1CN(c2cc(=O)n(C)c3ccc(C#N)nc23)CC[C@@H]1Oc1cccc(C(F)(F)F)c1` [Example 168] the IC50 (DGKα) was 1 µM, the IC50 [2, 5] was 3.7 µM and the EC50 [1, 7] was 1.6 µM. It also gave an IC50 (human DGKζ; read-out: DGKζ LIPGLO IC50) of 0.89 µM.
In the case of `CC(C)Oc1ccc(OC2CCN(c3cc(=O)n(C)c4ccc(C#N)nc34)CC2)nc1` [Example 66, 8-(4-((5-isopropoxypyridin-2-yl)oxy)piperidin-1-yl)-5-methyl-6-oxo-5,6-dihydro-1,5-naphthyridine-2-carbonitrile], the IC50 (DGKα) is reported as 1.2 µM, the IC50 [2, 5] is reported as 2.7 µM and the EC50 [1, 6] is reported as 0.82 µM. For the same compound, the IC50 (human DGKζ; read-out: DGKζ LIPGLO IC50) was 4 µM.
`CO[C@@H]1CN(c2nc(=O)n(C)c3ccc(C#N)nc23)CC[C@H]1Oc1cccc(C(F)(F)F)c1` (single isomer, unassigned) [Example 276] gave an IC50 (human DGKζ; Table A, read-out: DGKζ) of 2 µM and an IC50 (Human DGKα(9-727); [3]) of 1 µM.
`CC[C@@H]1CN(c2cc(=O)n(C)c3ccc(C#N)nc23)[C@@H](C)C[C@@H]1Oc1cccc(C(F)(F)F)c1` [Example 308, 8-((2S,4S,5R)-5-ethyl-2-methyl-4-(3-(trifluoromethyl)phenoxy)piperidin-1-yl)-5-methyl-6-oxo-5,6-dihydro-1,5-naphthyridine-2-carbonitrile] gave an IC50 (human DGKζ; Table A, read-out: DGKζ) of 3.1 µM and an IC50 (Human DGKα(9-727); [3]) of 4.3 µM.
`CCO[C@@H]1CN(c2cc(=O)n(C)c3ccc(C#N)nc23)CC[C@H]1Oc1cccc(C(F)(F)F)c1` [Example 264, 8-((3R,4R)-3-ethoxy-4-(3-(trifluoromethyl)phenoxy)piperidin-1-yl)-5-methyl-6-oxo-5,6-dihydro-1,5-naphthyridine-2-carbonitrile] was tested, and the EC50 [1, 8] was 6.5 µM, the IC50 (human DGKζ; Table A, read-out: DGKζ) was 17 µM and the IC50 (Human DGKα(9-727); [3]) was 4 µM.
Work on `CC(C)c1ccc(O[C@@H]2CCN(c3cc(=O)n(C)c4ccc(C#N)nc34)C[C@H]2C)cc1` [Example 94, 8-((3R,4R)-4-(4-isopropylphenoxy)-3-methylpiperidin-1-yl)-5-methyl-6-oxo-5,6-dihydro-1,5-naphthyridine-2-carbonitrile] yielded an IC50 (DGKα) of 0.08 µM, an IC50 [2, 5] of 3.9 µM and an EC50 [1, 6] of 1.1 µM. The IC50 (human DGKζ; read-out: DGKζ LIPGLO IC50) was 6.1 µM.
`Cn1c(=O)cc(N2CC[C@H](Oc3cccc(C(F)(F)F)c3)[C@@H](O)C2)c2nc(C#N)ccc21` (racemic) [Example 259, (±)-trans-8-(3-hydroxy-4-(3-(trifluoromethyl)phenoxy)piperidin-1-yl)-5-methyl-6-oxo-5,6-dihydro-1,5-naphthyridine-2-carbonitrile] was tested, and the EC50 [1, 4] was 20 µM, the IC50 (human DGKζ; Table A, read-out: DGKζ) was 150 µM and the IC50 (Human DGKα(9-727); [3]) was 1.1 µM.
Work on `Cc1cc(OC2CCN(c3cc(=O)n(C)c4ccc(C#N)nc34)CC2)nc(C(C)C)n1` [Example 78, 8-(4-((2-isopropyl-6-methylpyrimidin-4-yl)oxy)piperidin-1-yl)-5-methyl-6-oxo-5,6-dihydro-1,5-naphthyridine-2-carbonitrile] yielded an IC50 (DGKα) of 0.81 µM, an IC50 [2, 5] of 20 µM and an IC50 (human DGKζ; read-out: DGKζ LIPGLO IC50) of 16 µM.
For `Cn1c(=O)nc(N2CC[C@@H](Oc3cccc(C(F)(F)F)c3)[C@H](O)C2)c2nc(C#N)ccc21` (single isomer, unassigned) [Example 274, (+/−)-trans-4-(3-hydroxy-4-(3-(trifluoromethyl)phenoxy)piperidin-1-yl)-1-methyl-2-oxo-1,2-dihydropyrido[3,2-d]pyrimidine-6-carbonitrile], the EC50 [1, 4] was 8.2 µM, the IC50 (human DGKζ; Table A, read-out: DGKζ) was 15 µM and the IC50 (Human DGKα(9-727); [3]) was 14 µM.
`COc1ccc(NC2C[C@H](C)N(c3cc(=O)n(C)c4ccc(C#N)nc34)C[C@H]2C)nc1` (single isomer, unassigned) [Example 281] showed an EC50 [1, 8] of 9.8 µM, an IC50 (human DGKζ; Table A, read-out: DGKζ) of 2.8 µM and an IC50 (Human DGKα(9-727); [3]) of 2.7 µM.
For `Cc1nccc(OC2CCN(c3cc(=O)n(C)c4ccc(C#N)nc34)CC2)n1` [Example 72, 5-methyl-8-(4-((2-methylpyrimidin-4-yl)oxy)piperidin-1-yl)-6-oxo-5,6-dihydro-1,5-naphthyridine-2-carbonitrile], the IC50 (DGKα) was 4.2 µM, the IC50 [2, 5] was 20 µM and the EC50 [1, 6] was 20 µM. The IC50 (human DGKζ; read-out: DGKζ LIPGLO IC50) was 39 µM.
In the case of `Cn1c(=O)nc(N2CC[C@@H](Oc3cccc(C(F)(F)F)c3)[C@H](O)C2)c2nc(Cl)ccc21` (racemic) [Example 272, (+/−)-trans-6-chloro-4-(3-hydroxy-4-(3-(trifluoromethyl)phenoxy)piperidin-1-yl)-1-methylpyrido[3,2-d]pyrimidin-2(1H)-one], the EC50 [1, 8] is reported as 16 µM, the IC50 (human DGKζ; Table A, read-out: DGKζ) is reported as 24 µM and the IC50 (Human DGKα(9-727); [3]) is reported as 19 µM.
For `COc1ccc(NC2C[C@H](C)N(c3cc(=O)n(C)c4ccc(C#N)nc34)C[C@H]2C)nc1` (single isomer, unassigned) [Example 280], the EC50 [1, 8] was 20 µM, the IC50 (human DGKζ; Table A, read-out: DGKζ) was 170 µM and the IC50 (Human DGKα(9-727); [3]) was 0.38 µM.
For `CC(C)c1ccc(O[C@H]2CCN(c3cc(=O)n(C)c4ccc(C#N)nc34)C[C@H]2C)cc1` (single isomer, unassigned) [Example 178], the IC50 (DGKα) was 0.062 µM, the IC50 [2, 5] was 2.3 µM and the EC50 [1, 7] was 4.6 µM. It also gave an IC50 (human DGKζ; read-out: DGKζ LIPGLO IC50) of 0.53 µM.
For `Cn1c(=O)cc(N2CC[C@H](Oc3cccc(C(F)(F)F)c3)[C@@H](O)C2)c2nc(C#N)ccc21` (racemic) [Example 260, (±)-trans-8-(3-hydroxy-4-(3-(trifluoromethyl)phenoxy)piperidin-1-yl)-5-methyl-6-oxo-5,6-dihydro-1,5-naphthyridine-2-carbonitrile], the IC50 (human DGKζ; Table A, read-out: DGKζ) was 140 µM and the IC50 (Human DGKα(9-727)) was 1.9 µM.
`CC[C@@H]1CN(c2cc(=O)n(C)c3ccc(C#N)nc23)CC[C@@H]1Oc1cccc(C(C)(C)C)c1` [Example 167, 8-((3R,4S)-4-(3-(tert-butyl)phenoxy)-3-ethylpiperidin-1-yl)-5-methyl-6-oxo-5,6-dihydro-1,5-naphthyridine-2-carbonitrile] was tested, and the IC50 (DGKα) was 0.12 µM, the IC50 ([2]; Homo sapiens, CD8 positive) was 2 µM and the EC50 [1, 9] was 1.6 µM. The IC50 (human DGKζ; read-out: DGKζ LIPGLO IC50) was 1 µM.
In the case of `C[C@H]1CN(c2cc(=O)n(C)c3ccc(C#N)nc23)[C@@H](C)CC1N(C)c1ccc(C(F)(F)F)cc1` (single isomer, unassigned) [Example 319], the IC50 (human DGKζ; Table A, read-out: DGKζ) is reported as 130 µM and the IC50 (Human DGKα(9-727); [3]) is reported as 61 µM.
`CC[C@@H]1CN(c2cc(=O)n(C)c3ccc(C#N)nc23)CC[C@H]1Oc1cccc(C(C)C)c1` (single isomer, unassigned) [Example 139] showed an IC50 (DGKα) of 0.1 µM, an IC50 ([2]; Homo sapiens, CD8 positive) of 5.3 µM and an EC50 [1, 9] of 1.5 µM. It also gave an IC50 (human DGKζ; read-out: DGKζ LIPGLO IC50) of 1.7 µM.
`CCC(C)(C)c1ccc(O[C@H]2CCN(c3cc(=O)n(C)c4ccc(C#N)nc34)C[C@H]2C)cc1` (single isomer, unassigned) [Example 170] was tested, and the IC50 (DGKα) was 0.37 µM, the IC50 [2, 5] was 0.54 µM and the EC50 [1, 7] was 0.86 µM. It also gave an IC50 (human DGKζ; read-out: DGKζ LIPGLO IC50) of 1.1 µM.
`CO[C@@H]1CN(c2nc(=O)n(C)c3ccc(C#N)nc23)CC[C@H]1Oc1cccc(C(F)(F)F)c1` (single isomer, unassigned) [Example 277] gave an IC50 (human DGKζ; Table A, read-out: DGKζ) of 3.9 µM and an IC50 (Human DGKα(9-727); [3]) of 4.9 µM.
`CC1CN(c2cc(=O)n(C)c3ccc(C#N)nc23)CCC1N(C)C(=O)c1ccc(F)cc1` (single isomer, unassigned) [Example 287, N-(1-(6-Cyano-1-methyl-2-oxo-1,2-dihydro-1,5-naphthyridin-4-yl)-3-methylpiperidin-4-yl)-4-fluoro-N-methylbenzamide] showed an IC50 (human DGKζ; Table A, read-out: DGKζ) of 7.4 µM and an IC50 (Human DGKα(9-727)) of 3.2 µM.
